Common to all, as to assay type: functional
The subject of assay [1] is Pichia kudriavzevii. The assay is described as follows: Antifungal activity against Pichia kudriavzevii assessed as fungal growth inhibition by CLSI based microdilution method. (In general: Dilution methods test growth across graded concentrations, often in twofold steps.)
The subject of assay [2] is Cryptococcus neoformans. The assay is described as follows: Antifungal activity against Cryptococcus neoformans assessed as fungal growth inhibition by CLSI based microdilution method.
Assay [3] deals with Candida tropicalis. The assay can be described thus: Antifungal activity against Candida tropicalis assessed as fungal growth inhibition by CLSI based microdilution method.
Assay [4] relates to Candida albicans. The assay can be described thus: Antifungal activity against Candida albicans SC5314 assessed as fungal growth inhibition by CLSI based microdilution method.
Assay [5] deals with Candida parapsilosis. The assay is described as follows: Antifungal activity against Candida parapsilosis assessed as fungal growth inhibition by CLSI based microdilution method. As to conditions: Lodderomyces parapsilosis.
Assay [6] has as its system Candida albicans. The assay is described as follows: Antifungal activity against Candida albicans CPCC400616 assessed as fungal growth inhibition by CLSI based microdilution method.
Assay [7] relates to Nakaseomyces glabratus. The assay is described as follows: Antifungal activity against Candida glabrata assessed as fungal growth inhibition by CLSI based microdilution method.
Assay [8] has as its system Candida albicans. The assay can be described thus: Antifungal activity against fluconazole-resistant Candida albicans 904 assessed as fungal growth inhibition by CLSI based microdilution method.
Assay [9] relates to Candida albicans. The assay is described as follows: Antifungal activity against fluconazole-resistant Candida albicans 632 assessed as fungal growth inhibition by CLSI based microdilution method.
For assay [10], the system named is Candida albicans. The assay is described as follows: Antifungal activity against fluconazole-resistant Candida albicans CaR assessed as fungal growth inhibition by CLSI based microdilution method.
Assay [11] relates to Candida albicans. The assay is described as follows: Antifungal activity against fluconazole-resistant Candida albicans 901 assessed as fungal growth inhibition by CLSI based microdilution method.
In assay [12] the test system is Candida albicans. The assay is described as follows: Antifungal activity against fluconazole-resistant Candida albicans 17# assessed as fungal growth inhibition by CLSI based microdilution method.

In brackets after ≈: the same amount, converted by molar mass.

Consider `COc1cccc2cc(COC(Cn3ccnc3)c3ccc(Cl)cc3Cl)c(=O)oc12` (stereo unspecified), for which the MIC was determined as 32 µg/mL (≈ 71.9 µM) in assay [1]; 0.5 µg/mL (≈ 1.12 µM) in assay [2]; 128 µg/mL (≈ 287 µM) in assay [3]; 0.25 µg/mL (≈ 0.561 µM) in assay [4]; 0.5 µg/mL (≈ 1.12 µM) in [5]; 0.25 µg/mL (≈ 0.561 µM) in [6]. Further, the MIC in [7] is 32 µg/mL (≈ 71.9 µM).

In the case of `O=c1oc2ccc([N+](=O)[O-])cc2cc1COC(Cn1ccnc1)c1ccc(F)cc1F` (stereo unspecified), the minimal inhibitory concentration (MIC) in [1] was 128 µg/mL (≈ 300 µM); in assay [2], 64 µg/mL (≈ 150 µM); in [3], 128 µg/mL (≈ 300 µM); in [4], over 128 µg/mL; in assay [5] it was 64 µg/mL (≈ 150 µM); in assay [6] it was over 128 µg/mL. In [7], the MIC was determined as 32 µg/mL (≈ 74.9 µM).

For the molecule `O=c1ccc2cc(COC(Cn3cnnn3)c3ccc(Cl)cc3Cl)ccc2o1` (stereo unspecified), the MIC was 64 µg/mL (≈ 153 µM) in [1]; 128 µg/mL (≈ 307 µM) in assay [2]; 32 µg/mL (≈ 76.7 µM) in [3]; 2 µg/mL (≈ 4.79 µM) in assay [4]; 32 µg/mL (≈ 76.7 µM) in assay [5]; 1 µg/mL (≈ 2.4 µM) in assay [6]. The MIC in assay [7] was found to be 16 µg/mL (≈ 38.3 µM).

Consider `COc1cccc2cc(COC(Cn3ccnc3)c3ccc(F)cc3F)c(=O)oc12` (stereo unspecified), for which the MIC amounted to 2 µg/mL (≈ 4.85 µM) in [1]; 0.06 µg/mL (≈ 0.145 µM) in assay [2]; 32 µg/mL (≈ 77.6 µM) in [3]; 0.25 µg/mL (≈ 0.606 µM) in assay [4]; 0.06 µg/mL (≈ 0.145 µM) in [5]; 0.25 µg/mL (≈ 0.606 µM) in [6]. Moreover, the MIC in assay [7] came out at 4 µg/mL (≈ 9.7 µM).

In the case of `O=c1ccc2cc(COC(Cn3cncn3)c3ccc(F)cc3F)ccc2o1` (stereo unspecified), the minimal inhibitory concentration (MIC) in [1] amounted to 32 µg/mL (≈ 83.5 µM); in assay [2] it was 64 µg/mL (≈ 167 µM); in [3], 64 µg/mL (≈ 167 µM); in assay [4], 0.25 µg/mL (≈ 0.652 µM); in assay [5], 4 µg/mL (≈ 10.4 µM); in assay [6], 8 µg/mL (≈ 20.9 µM). For the same molecule, the MIC in assay [7] was determined as 16 µg/mL (≈ 41.7 µM).

As to `O=c1ccc2cc(COC(Cn3ccnn3)c3ccc(Cl)cc3Cl)ccc2o1` (stereo unspecified), the minimum inhibitory concentration (MIC) in [1] was 128 µg/mL (≈ 307 µM); in assay [2], 128 µg/mL (≈ 307 µM); in assay [3], 64 µg/mL (≈ 154 µM); in assay [4], 128 µg/mL (≈ 307 µM); in [5], 64 µg/mL (≈ 154 µM); in assay [6] it was over 128 µg/mL. Besides, in assay [7], the minimal inhibitory concentration (MIC) turned out to be 64 µg/mL (≈ 154 µM).

Take `O=c1ccc2ccc(COC(Cn3ccnc3)c3ccc(F)cc3F)cc2o1` (stereo unspecified): the minimal inhibitory concentration (MIC) in assay [1] worked out at 64 µg/mL (≈ 167 µM); in assay [8] it was 32 µg/mL (≈ 83.7 µM); in assay [2], 64 µg/mL (≈ 167 µM); in assay [3], 8 µg/mL (≈ 20.9 µM); in assay [9], 32 µg/mL (≈ 83.7 µM); in assay [4] it was 0.25 µg/mL (≈ 0.654 µM). Further, the MIC in assay [5] amounted to 16 µg/mL (≈ 41.8 µM); in [10], 128 µg/mL (≈ 335 µM); in assay [11], 64 µg/mL (≈ 167 µM); in assay [6] it was 4 µg/mL (≈ 10.5 µM); in [7], 64 µg/mL (≈ 167 µM); in assay [12], 128 µg/mL (≈ 335 µM).

As for `CCC(C)n1ncn(-c2ccc(N3CCN(c4ccc(OCC5COC(Cn6cncn6)(c6ccc(Cl)cc6Cl)O5)cc4)CC3)cc2)c1=O` (stereo unspecified) [ITRACONAZOLE], the MIC was over 128 µg/mL in assay [8]; 64 µg/mL (≈ 90.7 µM) in assay [9]; 64 µg/mL (≈ 90.7 µM) in assay [10]; over 128 µg/mL in assay [11]; 128 µg/mL (≈ 181 µM) in [12].

For the molecule `O=c1ccc2ccc(COC(Cn3ccnn3)c3ccc(F)cc3F)cc2o1` (stereo unspecified), the minimum inhibitory concentration (MIC) in assay [1] is over 128 µg/mL; in assay [2], over 128 µg/mL; in assay [3], 4 µg/mL (≈ 10.4 µM); in [4], over 128 µg/mL; in assay [5] it was over 128 µg/mL; in assay [6], over 128 µg/mL. In addition, the MIC in [7] worked out at 128 µg/mL (≈ 334 µM).

Turning to `O=c1oc2c(Cl)cc(Cl)cc2cc1COC(Cn1ccnc1)c1ccc(F)cc1` (stereo unspecified), the MIC is over 128 µg/mL in assay [1]; 128 µg/mL (≈ 295 µM) in assay [2]; over 128 µg/mL in [3]; over 128 µg/mL in [4]; over 128 µg/mL in assay [5]; over 128 µg/mL in [6]. The MIC in assay [7] was over 128 µg/mL.

As to `O=c1oc2ccc(Cl)cc2cc1COC(Cn1ccnc1)c1ccc(Cl)cc1Cl` (stereo unspecified), the minimal inhibitory concentration (MIC) in assay [1] is 128 µg/mL (≈ 285 µM); in [2], 16 µg/mL (≈ 35.6 µM); in assay [3], 128 µg/mL (≈ 285 µM); in [4], 0.25 µg/mL (≈ 0.556 µM); in [5], 16 µg/mL (≈ 35.6 µM); in assay [6], 16 µg/mL (≈ 35.6 µM). Also, the MIC in [7] is 128 µg/mL (≈ 285 µM).

For `O=c1oc2c(Cl)cc(Cl)cc2cc1COC(Cn1ccnc1)c1ccc(F)cc1F` (stereo unspecified), the minimal inhibitory concentration (MIC) in assay [1] is over 128 µg/mL; in assay [2] it was 64 µg/mL (≈ 142 µM); in assay [3], over 128 µg/mL; in assay [4], over 128 µg/mL; in assay [5] it was over 128 µg/mL; in assay [6] it was over 128 µg/mL. In assay [7], the minimal inhibitory concentration (MIC) is over 128 µg/mL.

As to `O=c1oc2ccccc2cc1COC(Cn1cncn1)c1ccc(F)cc1F` (stereo unspecified), the minimal inhibitory concentration (MIC) in assay [1] is 16 µg/mL (≈ 41.7 µM); in [2], 32 µg/mL (≈ 83.5 µM); in assay [3], 64 µg/mL (≈ 167 µM); in [4], 0.25 µg/mL (≈ 0.652 µM); in [5] it was 2 µg/mL (≈ 5.22 µM); in assay [6] it was 8 µg/mL (≈ 20.9 µM). The minimal inhibitory concentration (MIC) in assay [7] came out at 8 µg/mL (≈ 20.9 µM).

Turning to `O=c1ccc2cc(COC(Cn3cncn3)c3ccc(Cl)cc3Cl)ccc2o1` (stereo unspecified), the minimal inhibitory concentration (MIC) in assay [1] is 16 µg/mL (≈ 38.4 µM); in [2], 32 µg/mL (≈ 76.9 µM); in assay [3] it was 32 µg/mL (≈ 76.9 µM); in assay [4], 0.25 µg/mL (≈ 0.601 µM); in assay [5], 2 µg/mL (≈ 4.8 µM); in assay [6], 4 µg/mL (≈ 9.61 µM). The MIC in assay [7] worked out at 32 µg/mL (≈ 76.9 µM).

By MIC is commonly meant the smallest concentration in the dilution series that meets the test's criterion for growth inhibition.
